Experimental data: patent US12583854B2, “KRAS G12C inhibitors and methods of using the same” (Amgen Inc., priority 2018, dated 2026)
Where a name gives a salt, the structure may show the parent alone.

Columns and labels:
[1] = system: Phosphorylation of ERK1/2 in MIA PaCa-2 cells; assay: Phospho-ERK1/2 MSD Assay; assay type: cell-based; settings: Homo sapiens, MIA PaCa-2, 2 h compound treatment, EGF stimulation 10 ng/mL, 10 min, read-out: p-ERK IC50 (2 h)
Description: Phospho-ERK1/2 MSD Assay: MIA PaCa-2 (ATCC® CRL-1420™) and A549 (ATCC® CCL-185™) cells were cultured in RPMI 1640 Medium (ThermoFisher Scientific 11875093) containing 10% fetal bovine serum (ThermoFisher Scientific 16000044) and 1× penicillin-streptomycin-glutamine (ThermoFisher Scientific 10378016). Sixteen hours prior to compound treatment, MIA PaCa-2 were seeded in 96-well cell culture plates at a density of 25,000 cells/well and incubated at 37° C., 5% CO2. A compound dose-response titration was diluted in growth media, added to appropriate wells of a cell culture plate, and then incubated at 37° C., 5% CO2 for 2 (see Table 10). Following compound treatment, cells were stimulated with 10 ng/mL EGF (Roche 11376454001) for 10 min, washed with ice-cold Dulbecco's phosphate-buffered saline, no Ca^2+ or Mg^2+ (ThermoFisher Scientific 14190144), and then lysed in RIPA buffer (50 mM Tris-HCl pH 7.5, 1% Igepal, 0.5% sodium deoxycholate, 150 mM NaCl, and 0.5% sodium dodecyl sulfate) containing protease inhibitors (Roche 4693132001) and phosphatase inhibitors (Roche 4906837001). Phosphorylation of ERK1/2 in compound-treated lysates was assayed using Phospho-ERK1/2 Whole Cell Lysate kits (Meso Scale Discovery K151DWD) according to the manufacturer's protocol. Assay plates were read on a Meso Scale Discovery Sector Imager 6000, and data were analyzed using a 4-parameter logistic model to calculate IC50 values.

[2] = biological target: GDP-bound KRAS protein (aa 1-169), containing both G12C and C118A amino acid substitutions (Homo sapiens, UniProt P01116, C118A/G12C); assay: Coupled Nucleotide Exchange Assay; assay type: biochemical; settings: 5 min compound pre-incubation; SOS-mediated nucleotide exchange, AlphaScreen
Description: Following compound pre-incubation, purified SOS protein (aa 564-1049) and GTP (Roche 10106399001) were added to the assay wells and incubated for an additional 30 min. To determine the extent of inhibition of SOS-mediated nucleotide exchange, purified GST-tagged cRAF (aa 1-149), nickel chelate AlphaLISA acceptor beads (PerkinElmer AL108R), and AlphaScreen glutathione donor beads (PerkinElmer 6765302) were added to the assay wells and incubated for 10 minutes. The assay plates were then read on a PerkinElmer EnVision Multilabel Reader, using AlphaScreen® technology, and data were analyzed using a 4-parameter logistic model to calculate IC50 values.

Chain of GDP-bound KRAS protein (aa 1-169), containing both G12C and C118A amino acid substitutions (P01116 1-169 isoform P01116-2 G12C/C118A): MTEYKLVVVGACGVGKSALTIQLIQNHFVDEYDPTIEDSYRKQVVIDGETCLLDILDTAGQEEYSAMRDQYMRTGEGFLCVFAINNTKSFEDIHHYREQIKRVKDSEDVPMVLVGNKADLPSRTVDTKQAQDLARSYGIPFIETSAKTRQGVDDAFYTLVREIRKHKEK

SMILES | IC50 [1] | Coupled exchange IC50 (5 min; μM) [2]
CNC/C=C/C(=O)N1CCN(c2c(C#N)c(=O)n(-c3c(C(C)C)ncnc3C(C)C)c3nc(-c4ccccc4F)c(Cl)cc23)CC1 [Example 4, (E)-6-Chloro-1-(4,6-diisopropylpyrimidin-5-yl)-7-(2-fluorophenyl)-4-(4-(4-(methylamino)but-2-enoyl)piperazin-1-yl)-2-oxo-1,2-dihydro-1,8-naphthyridine-3-carbonitrile trifluoroacetate salt] | 300 nM | 0.34 µM
C=CC(=O)N1CCN(c2c(C#N)c(=O)n(-c3c(C)ccnc3C(C)C)c3nc(-c4ccccc4F)c(Cl)cc23)C[C@H]1C [Example 6.2, (R)-4-(4-acryloyl-3-methylpiperazin-1-yl)-6-chloro-7-(2-fluorophenyl)-1-(2-isopropyl-4-methylpyridin-3-yl)-2-oxo-1,2-dihydro-1,8-naphthyridine-3-carbonitrile] | 140 nM | 0.28 µM
C=CC(=O)N1CCN(c2c(C#N)c(=O)n(-c3c(C)ccnc3C(C)C)c3nc(-c4ccccc4C(C)C)c(Cl)cc23)CC1 (single isomer, unassigned) [Example 11.3, 4-(4-acryloylpiperazin-1-yl)-6-chloro-1-(2-isopropyl-4-methylpyridin-3-yl)-7-(2-isopropylphenyl)-2-oxo-1,2-dihydro-1,8-naphthyridine-3-carbonitrile] | 90 nM | 0.05 µM
CC(C)c1ncnc(C(C)C)c1-n1c(=O)c(C#N)c(N2CCN(C(=O)/C=C/CN)CC2)c2cc(Cl)c(-c3ccccc3F)nc21 [Example 4.1, (E)-4-(4-(4-aminobut-2-enoyl)piperazin-1-yl)-6-chloro-1-(4,6-diisopropylpyrimidin-5-yl)-7-(2-fluorophenyl)-2-oxo-1,2-dihydro-1,8-naphthyridine-3-carbonitrile] | 160 nM | 0.18 µM
CC(C)NC/C=C/C(=O)N1CCN(c2c(C#N)c(=O)n(-c3c(C(C)C)ncnc3C(C)C)c3nc(-c4ccccc4F)c(Cl)cc23)CC1 [Example 5.1, (E)-6-chloro-1-(4,6-diisopropylpyrimidin-5-yl)-7-(2-fluorophenyl)-4-(4-(4-(isopropylamino)but-2-enoyl)piperazin-1-yl)-2-oxo-1,2-dihydro-1,8-naphthyridine-3-carbonitrile] | 560 nM | 0.44 µM
C=CC(=O)N1CCN(c2c(C#N)c(=O)n(-c3c(C(C)C)ccnc3C(C)C)c3nc(-c4ccccc4C)c(Cl)cc23)CC1 (single isomer, unassigned) [Example 7, 4-(4-Acryloylpiperazin-1-yl)-6-chloro-1-(2,4-diisopropylpyridin-3-yl)-2-oxo-7-(o-tolyl)-1,2-dihydro-1,8-naphthyridine-3-carbonitrile] | 220 nM | 0.15 µM
